Assay results reported in ChEMBL document CHEMBL1201862, “PubChem BioAssay data set” (2004).
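In this assay, cells in 96-well plates receive the compound at five concentrations for 48 hours. Endpoints are linearly interpolated between the surrounding concentrations. Here, GI50 denotes the concentration required for 50% inhibition of growth.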 Active and inactive are the calls of the source. Rule as the data show it: active = GI50 up to about 1.1 µM and inactive = higher.

What was measured:
Assay in all cases: DTP human tumour cell line panel, 48 h
HCC 2998 = system: HCC 2998
A549 = system: A549
OVCAR-8 = system: OVCAR-8
SNB-19 = system: SNB-19
SN12C = system: SN12C
RPMI-8226 = system: RPMI-8226
HCT-116 = system: HCT-116
U-251 = system: U-251
NCI-H522 = system: NCI-H522
UO-31 = system: UO-31
CAKI-1 = system: CAKI-1
SK-OV-3 = system: SK-OV-3
RXF 393 = system: RXF 393
HT-29 = system: HT-29
786-0 = system: 786-0
SF-295 = system: SF-295
NCI-H226 = system: NCI-H226

SMILES | GI50 (HCC 2998) | GI50 (A549) | GI50 (OVCAR-8) | GI50 (SNB-19) | GI50 (SN12C) | GI50 (RPMI-8226) | GI50 (HCT-116) | GI50 (U-251) | GI50 (NCI-H522) | GI50 (UO-31) | GI50 (CAKI-1) | GI50 (SK-OV-3) | GI50 (RXF 393) | GI50 (HT-29) | GI50 (786-0) | GI50 (SF-295) | GI50 (NCI-H226)
CCCCCCCCCC(=O)OCC1OC(n2cc(F)c(=O)[nH]c2=O)C(NC(=O)OCc2ccccc2)C(OC(=O)CCCCCCCCC)C1O (stereo not drawn) | 41.2 µM (inactive) | 26.1 µM (inactive) | 24.3 µM (inactive) | 33.6 µM (inactive) | 15.8 µM (inactive) | 21.4 µM (inactive) | 14.9 µM (inactive) | 15 µM (inactive) | 20.9 µM (inactive) | 40.2 µM (inactive) | > 100 µM (inactive) | > 100 µM (inactive) | 18.8 µM (inactive) | 16.9 µM (inactive) | 18.9 µM (inactive) | 40 µM (inactive) | 
CCCCc1c2c([n+]([O-])c3c1CCCC3)CCCC2 | > 100 µM (inactive) | > 100 µM (inactive) | > 100 µM (inactive) | 44.4 µM (inactive) | > 100 µM (inactive) | 50.8 µM (inactive) | 65.2 µM (inactive) | > 100 µM (inactive) | 2 µM (inactive) | 61.1 µM (inactive) |  | 98.4 µM (inactive) |  | > 100 µM (inactive) | > 100 µM (inactive) | 28 µM (inactive) | > 100 µM (inactive)
Cc1nc2ccccc2c(=O)n1-c1ccccc1I | > 100 µM (inactive) | > 100 µM (inactive) | > 100 µM (inactive) | > 100 µM (inactive) | > 100 µM (inactive) | > 100 µM (inactive) | > 100 µM (inactive) | > 100 µM (inactive) | > 100 µM (inactive) | 90.2 µM (inactive) | > 100 µM (inactive) | > 100 µM (inactive) |  | > 100 µM (inactive) | > 100 µM (inactive) | > 100 µM (inactive) | > 100 µM (inactive)
N#Cc1c2ccccc2c(Cc2ccc3c(c2)OCCOCCOCCOCCOCCO3)c2ccccc12 | 11.8 µM (inactive) | 4.29 µM (inactive) | 5.65 µM (inactive) | 9.66 µM (inactive) | 10.1 µM (inactive) | 3.11 µM (inactive) | 6.12 µM (inactive) | 9.44 µM (inactive) | 10.8 µM (inactive) | 3.85 µM (inactive) | 10.1 µM (inactive) | 13.6 µM (inactive) | 2.32 µM (inactive) |  | 10.9 µM (inactive) | 8.69 µM (inactive) | 11.9 µM (inactive)
CC(=O)OC1OC2C(NC(=O)OC(C)(C)C)C1CC2(OCc1ccccc1)OCc1ccccc1 (stereo not drawn) | 21.6 µM (inactive) | 36.5 µM (inactive) | 53.8 µM (inactive) | 45.1 µM (inactive) | 27.2 µM (inactive) | 11.6 µM (inactive) | 16.7 µM (inactive) | 14.4 µM (inactive) | 15.1 µM (inactive) | 13.1 µM (inactive) | 32.4 µM (inactive) | 28.3 µM (inactive) | 14.2 µM (inactive) | 33.7 µM (inactive) | 23.3 µM (inactive) | 35.2 µM (inactive) | 24.7 µM (inactive)
CN(C)CCC(/C=C/c1ccccc1)=N\Nc1ccc(Cl)cc1Cl |  | 15.6 µM (inactive) | 16.3 µM (inactive) | 15.5 µM (inactive) | 11.1 µM (inactive) | 11.7 µM (inactive) | 14.5 µM (inactive) | 11.6 µM (inactive) | 15.3 µM (inactive) | 1.73 µM (inactive) |  | 10.8 µM (inactive) | 8.77 µM (inactive) | 14.2 µM (inactive) | 12.9 µM (inactive) | 16.6 µM (inactive) | 
Cc1cc2nc3c(C(OC4OC(CO)C(O)C(O)C4O)C(O)CO)nn(-c4ccc(F)cc4)c3nc2cc1C (stereo not drawn) | > 100 µM (inactive) |  | > 100 µM (inactive) | > 100 µM (inactive) | > 100 µM (inactive) | > 100 µM (inactive) | > 100 µM (inactive) | > 100 µM (inactive) | > 100 µM (inactive) | > 100 µM (inactive) |  | > 100 µM (inactive) | > 100 µM (inactive) | > 100 µM (inactive) | > 100 µM (inactive) | > 100 µM (inactive) | 
Cc1n[nH]c(=S)n(C)c1=S |  | > 100 µM (inactive) | > 100 µM (inactive) | > 100 µM (inactive) | > 100 µM (inactive) | > 100 µM (inactive) | > 100 µM (inactive) | > 100 µM (inactive) | > 100 µM (inactive) | > 100 µM (inactive) |  | > 100 µM (inactive) | > 100 µM (inactive) |  | > 100 µM (inactive) | > 100 µM (inactive) | > 100 µM (inactive)
COc1ccccc1C12OC(=O)C1(C)Oc1ccccc1C2=O (stereo not drawn) | > 100 µM (inactive) | > 100 µM (inactive) | > 100 µM (inactive) | > 100 µM (inactive) | > 100 µM (inactive) | > 100 µM (inactive) | > 100 µM (inactive) | > 100 µM (inactive) |  | > 100 µM (inactive) |  | > 100 µM (inactive) | > 100 µM (inactive) | > 100 µM (inactive) | > 100 µM (inactive) | > 100 µM (inactive) | > 100 µM (inactive)
N#Cc1c(C[n+]2ccccc2)c2ccccc2oc1=O | > 100 µM (inactive) | > 100 µM (inactive) | > 100 µM (inactive) | > 100 µM (inactive) | > 100 µM (inactive) | > 100 µM (inactive) | > 100 µM (inactive) | > 100 µM (inactive) | > 100 µM (inactive) | > 100 µM (inactive) | > 100 µM (inactive) | > 100 µM (inactive) |  | > 100 µM (inactive) | > 100 µM (inactive) | > 100 µM (inactive) | > 100 µM (inactive)
CN(C)C(=S)/N=c1\ssc(=S)n1Cc1ccncc1 | 21.1 µM (inactive) | 33.3 µM (inactive) | 23.1 µM (inactive) | 29.2 µM (inactive) | > 100 µM (inactive) |  | 18.3 µM (inactive) | 14.7 µM (inactive) | 1.49 µM (inactive) | 15.5 µM (inactive) | 18.9 µM (inactive) | 25.2 µM (inactive) | 25.5 µM (inactive) |  | 21.7 µM (inactive) | 29.8 µM (inactive) | > 100 µM (inactive)
O=[N+]([O-])c1ccc2nc(/C(=N/Nc3ccccc3)C(O)c3ccc(C(O)/C(=N\Nc4ccccc4)c4nc5ccc([N+](=O)[O-])cc5nc4O)cc3)cnc2c1 (stereo not drawn) | 29.1 µM (inactive) | 48.5 µM (inactive) | > 100 µM (inactive) | > 100 µM (inactive) | 44.1 µM (inactive) | 19.4 µM (inactive) | 55.5 µM (inactive) |  | 5.64 µM (inactive) | 23 µM (inactive) | 60.4 µM (inactive) | > 100 µM (inactive) | > 100 µM (inactive) | > 100 µM (inactive) | > 100 µM (inactive) | > 100 µM (inactive) | 
CC1(C)C(=O)C(=Cc2ccco2)C1=O | > 100 µM (inactive) | > 100 µM (inactive) | > 100 µM (inactive) |  | > 100 µM (inactive) | > 100 µM (inactive) | > 100 µM (inactive) | > 100 µM (inactive) | > 100 µM (inactive) | > 100 µM (inactive) | > 100 µM (inactive) | > 100 µM (inactive) |  | > 100 µM (inactive) | > 100 µM (inactive) | > 100 µM (inactive) | > 100 µM (inactive)
O=C(c1ccccc1)C1(Br)S(=O)(=O)OCCOS1(=O)=O | > 100 µM (inactive) | > 100 µM (inactive) | > 100 µM (inactive) | > 100 µM (inactive) | > 100 µM (inactive) | > 100 µM (inactive) | > 100 µM (inactive) | > 100 µM (inactive) | > 100 µM (inactive) | > 100 µM (inactive) |  | > 100 µM (inactive) | > 100 µM (inactive) | > 100 µM (inactive) | > 100 µM (inactive) | > 100 µM (inactive) | > 100 µM (inactive)
NC1=NN(c2ccccc2)C(=O)C1/C(=N\NC(=O)c1cc2ccccc2cc1O)C(=O)Nc1ccc(Cl)cc1 (stereo not drawn) | 28.9 µM (inactive) | 44.5 µM (inactive) | 20.8 µM (inactive) | 37.8 µM (inactive) | 36.8 µM (inactive) | 22.6 µM (inactive) | 11.9 µM (inactive) | 31.5 µM (inactive) | 20.4 µM (inactive) | 21.8 µM (inactive) | 31 µM (inactive) | 51.5 µM (inactive) |  | 42.5 µM (inactive) | 20.2 µM (inactive) | 35.5 µM (inactive) | 23.6 µM (inactive)
O=C(NC1C2CC3CC(C2)CC1C3)/C(Cl)=C1/Sc2ccccc2NC1=O (stereo not drawn) | > 80 µM (inactive) | > 100 µM (inactive) | > 100 µM (inactive) | > 100 µM (inactive) | > 100 µM (inactive) |  | > 83.6 µM (inactive) | > 100 µM (inactive) | > 100 µM (inactive) | 58.9 µM (inactive) | > 100 µM (inactive) |  | > 100 µM (inactive) | > 100 µM (inactive) | > 100 µM (inactive) | > 100 µM (inactive) | > 100 µM (inactive)
COc1ccc(N2C(=O)C3CC(c4ccc(Br)cc4)c4c([nH]c5ccccc45)C3C2=O)cc1 (stereo not drawn) |  | 2.71 µM (inactive) | 2.13 µM (inactive) | 3.43 µM (inactive) | 3.93 µM (inactive) | 26.7 µM (inactive) | 6.4 µM (inactive) |  |  | 11 µM (inactive) | 15.1 µM (inactive) |  |  | 13.2 µM (inactive) | 2.2 µM (inactive) | 10.8 µM (inactive) | 18.6 µM (inactive)
COc1ccc(/C=C\c2cc(OC)c(OC)c(OC)c2)cc1 | 0.0385 µM (active) | 0.00051 µM (active) | 0.000832 µM (active) | 0.0013 µM (active) | 0.000843 µM (active) | 0.00049 µM (active) | 0.000279 µM (active) | 0.000284 µM (active) | 0.000364 µM (active) | < 0.01 µM (active) | < 0.01 µM (active) | 0.000726 µM (active) |  | < 0.01 µM (active) | 0.000395 µM (active) | 0.000185 µM (active) | 0.000499 µM (active)
